Assay results: publication PMC5635026, “Homo-PROTACs: bivalent small-molecule dimerizers of the VHL E3 ubiquitin ligase to induce self-degradation” (Nature Communications, 2017)

Key:
[1] = tested on: Cullin2; experiment: Immunoblot of Cullin2 protein level in HeLa cells after compound treatment; type: cell-based, Human; conditions: for reduction of Cullin2 levels: 1 µM, 10 h
Procedure: Cell culture. Human cell lines HeLa, U2OS and HEK 293, purchased from ATCC, were propagated in DMEM supplemented with 10% fetal bovine serum (FBS), L- glutamine, 100 μg ml^−1 of penicillin/streptomycin at 37 °C and 5% CO2. Cells were maintained for no more than 30 passages. All cell lines were routinely tested for mycoplasma contamination using MycoAlert kit from Lonza. For compound treatment experiments, cells were transferred in six-well plates with either 3 × 10^5 or 5 × 10^5 cells per well in 2 ml of media. At 80% confluence, cells were treated with compounds at the desired concentration, reaching final DMSO concentration of 0.1% v/v. Cells were incubated at 37 °C and 5% CO2 for the desired time before harvesting.
Immunoblotting. Cells were lysed in lysis buffer (20 mM Tris pH 8, 150 mM NaCl, 1% Triton × 100) and a protease inhibitor cocktail (Roche) per 10 ml buffer. For protein extracts, the dishes were placed on ice. The media was aspirated and the tissue layer washed twice with ice-cold phosphate buffer saline (PBS). Lysis buffer (120 μl) was added and the cells detached from the surface with a cell scraper. After removal of the insoluble fraction by centrifugation, the protein concentration of the supernatant was determined by Pierce™ Coomassie (Bradford) Protein Assay Kit. Protein extracts were fractionated by SDS-PAGE on 4–12% Tris-Acetate NuPage® Novex® (Life Technologies) polyacrylamide gels and transferred to a nitrocellulose membrane using wet transfer. The membrane was then blocked with 5 % w/v Bovine serum albumin (BSA) in Tris-buffered saline (TBS) with 0.1% w/v Tween-20. […] Band quantification was performed using ImageJ software and reported as relative amount as ratio of the each protein band relative to the lane’s loading control. […]

[2] = target: pVHL30 (Homo sapiens, UniProt P40337); experiment: Isothermal titration calorimetry (ITC) against VCB complex with long VHL isoform (V30CB); type: binding; design: N-terminally His6-tagged VHL (1–213), ElonginC (17–112) and ElonginB (1–104) were co-expressed; His6 (N, cleaved yes); made in house; host or cells: Escherichia coli BL21(DE3)
Procedure: Protein expression and purification. Human proteins VHL (UniProt accession number: P40337), ElonginC (Q15369), and ElonginB (Q15370) were used for all protein expression. The short-isoform-containing VCB complex (V19CB) was expressed, purified and stored as described previously. For expression of the long-isoform-containing VCB complex (V30CB), N-terminally His6-tagged VHL (1–213), ElonginC (17–112) and ElonginB (1–104) were co-expressed in Escherichia coli BL21(DE3) at 20 °C for 18 h using 0.5 mM isopropyl β-D-1-thiogalactopyranoside (IPTG). E. coli cells were resuspended in binding buffer (50 mM HEPES, pH 8.0, 500 mM NaCl, 10 mM imidazole and 5 mM β-mercaptoethanol), lysed using a pressure cell homogenizer (Stansted Fluid Power), and lysate clarified by centrifugation. The supernatant was loaded onto a HisTrap FF affinity column (GE Healthcare) equilibrated with binding buffer, and bound protein was eluted using an imidazole gradient. The His6 tag was removed using thrombin protease (Sigma), and the untagged complex was dialyzed into binding buffer. V30CB was then loaded onto the HisTrap FF column a second time, allowing impurities to bind as the complex eluted without binding. The flow-through was dialyzed using a low-salt buffer (20 mM HEPES, pH 8.0, 25 mM NaCl and 1 mM DTT) and then loaded onto a Resource Q anion exchange column (GE Healthcare); bound protein was eluted across a linear NaCl gradient. V30CB was then additionally purified by size-exclusion chromatography using a Superdex-75 16/600 column (GE Healthcare) equilibrated with 20 mM HEPES, pH 7.5, 100 mM sodium chloride and 1 mM TCEP. All chromatography purification steps were performed using Äkta FPLC purification systems (GE Healthcare).
Isothermal titration calorimetry (ITC). Titrations were performed on an ITC200 micro-calorimeter (GE Healthcare). […] The final DMSO concentration was 0.15% v/v. VCB protein experiments were carried out in a buffer containing 20 mM Bis-tris propane, 150 mM NaCl, 1 mM TCEP, 0.15% v/v DMSO, pH 7.4. The titrations consisted of 19 injections of 2 µL compounds solution (150 µM, in the syringe) at a rate of 0.5 µl s^−1 at 120 s time intervals into the VCB protein solution (20 µM, in the cell). An initial injection of compound solution (0.4 µL) was made and discarded during data analysis. All experiments were performed at 25 °C, whilst stirring the syringe at 600 rpm. The data were fitted to a single binding site model to obtain the stoichiometry n, the dissociation constant K d and the enthalpy of binding ΔH using the Microcal LLC ITC200 Origin software provided by the manufacturer.

Chain of pVHL30 (P40337 whole entry, canonical isoform): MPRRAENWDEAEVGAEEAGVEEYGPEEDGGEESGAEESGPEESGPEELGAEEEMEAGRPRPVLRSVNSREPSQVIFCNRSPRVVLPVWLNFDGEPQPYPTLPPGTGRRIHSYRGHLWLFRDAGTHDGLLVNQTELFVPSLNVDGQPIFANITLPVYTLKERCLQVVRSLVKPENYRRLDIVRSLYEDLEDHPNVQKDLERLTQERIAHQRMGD
Chain of pVHL30 (Q15369 17-112 partner limits assumed): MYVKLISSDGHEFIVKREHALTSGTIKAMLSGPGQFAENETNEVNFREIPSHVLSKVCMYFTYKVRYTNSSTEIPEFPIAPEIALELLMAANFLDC
Chain of pVHL30 (Q15370 1-104 partner limits assumed): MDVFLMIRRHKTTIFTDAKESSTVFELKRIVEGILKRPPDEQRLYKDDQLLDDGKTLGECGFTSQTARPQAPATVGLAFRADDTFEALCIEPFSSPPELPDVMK

Cc1ncsc1-c1ccc(CNC(=O)[C@@H]2C[C@@H](O)CN2C(=O)[C@@H](NC(=O)COCCOCCOCCOCCOCCOCC(=O)N[C@H](C(=O)N2C[C@H](O)C[C@H]2C(=O)NCc2ccc(-c3scnc3C)cc2)C(C)(C)C)C(C)(C)C)cc1 [CM11, N ^1 ,N ^20-bis((S)-1-((2S,4R)-4-hydroxy-2-((4-(4-methylthiazol-5-yl)benzyl)carbamoyl)pyrrolidin-1-yl)-3,3-dimethyl-1-oxobutan-2-yl)-3,6,9,12,15,18-hexaoxaicosanediamide]
reduction of Cullin2 levels [1]: up to 22% | decrease of cellular levels of Cullin2 ([1]; dose-response, 4 or 24 h, Fig. 5a): up to 73% | ΔG ([2]; 25 °C, pVHL30): –10.4 ± 0.1 kcal mol^−1 | ΔH ([2]; 25 °C, pVHL30): –11.3 ± 0.1 kcal mol^−1 | Kd ([2]; 25 °C, pVHL30 (V30CB)): 25 ± 3 nM | n ([2]; 25 °C, stoichiometry of binding, pVHL30 (V30CB)): 0.866 ± 0.003 | α ([2]; avidity / cooperativity, pVHL30): 7.5

Cc1ncsc1-c1ccc(CNC(=O)[C@@H]2C[C@@H](O)CN2C(=O)[C@@H](NC(=O)COCCOCCOCCOCCOCC(=O)N[C@H](C(=O)N2C[C@H](O)C[C@H]2C(=O)NCc2ccc(-c3scnc3C)cc2)C(C)(C)C)C(C)(C)C)cc1 [CM10, N ^1 ,N ^17-bis((S)-1-((2S,4R)-4-hydroxy-2-((4-(4-methylthiazol-5-yl)benzyl)carbamoyl)pyrrolidin-1-yl)-3,3-dimethyl-1-oxobutan-2-yl)-3,6,9,12,15-pentaoxaheptadecanediamide]
reduction of Cullin2 levels [1]: up to 22%
